# According to patent US11708373B2, “5-alkylquinazoline derivative, method of preparing the same, and method of using the same” (Hefei University of Technology, priority 2020, dated 2023):
# System: breast cancer cells (MCF)
# Test: MCF test of breast cancer cells
# Format: cell-based
# Text: Therefore, the compounds of the present application are expected to be useful in the treatment of various cancers, such as cervical cancer.
compound,measurement,value
COC(=O)C1=NC2(Nc3ccc(C)cc31)C(=O)Nc1ccc(C)cc12 (stereo not shown) [Compound II],"ED50, inhibitory activity in the MCF test of breast cancer cells",< 10.0 µg/mL
